ChEMBL document CHEMBL5584309, “Discovery of Novel Mcl-1 Inhibitors with a 3-Substituted-1H-indole-1-yl Moiety Binding to the P1-P3 Pockets to Induce Apoptosis in Acute Myeloid Leukemia Cells” (J Med Chem, 2024)

Target: T1, Induced myeloid leukemia cell differentiation protein Mcl-1 (Homo sapiens, UniProt Q07820)
Experiment: Binding affinity to human MCL-1 measured by competition against fluorescently labelled BH3 - Bid measured after 6 hrs by fluorescent polarization assay
Settings: not given; call rule not given here

T1 sequence (Q07820 whole entry): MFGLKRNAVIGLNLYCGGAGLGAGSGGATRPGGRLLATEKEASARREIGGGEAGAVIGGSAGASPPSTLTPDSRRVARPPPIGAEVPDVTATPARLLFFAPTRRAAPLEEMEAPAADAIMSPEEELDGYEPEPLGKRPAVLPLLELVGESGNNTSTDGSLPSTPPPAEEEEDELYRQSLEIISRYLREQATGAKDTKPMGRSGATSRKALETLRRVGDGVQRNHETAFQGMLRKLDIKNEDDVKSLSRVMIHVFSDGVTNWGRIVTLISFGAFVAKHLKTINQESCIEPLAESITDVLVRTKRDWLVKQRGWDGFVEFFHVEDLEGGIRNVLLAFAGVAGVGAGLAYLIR

Ki [µM]	Compound
0.3	CC1(C)CC[C@@H](OC(=O)/C=C/c2ccccc2)C2C(C=O)C(C=O)C[C@H](O)[C@H]21 (some centres undefined)

Target: T1, Induced myeloid leukemia cell differentiation protein Mcl-1
Experiment: Binding affinity to Mcl-1 (unknown origin) pre-incubated for 30 mins followed by addition FAM-peptide further incubated for 20 mins by fluorescence polarization-based binding assay
Settings: not given

Ki	Compound
Not Active	Cc1cc(OCCCc2c(C(=O)O)n(CCN3CCOCC3)c3c(-c4ccccc4Cn4cc(CCNC(=O)/C=C/c5ccc(Cl)c(Cl)c5)c5ccccc54)cccc23)cc(C)c1Cl

Same assay, conditions: read-out: Ki

Ki [µM]	Compound
0.12	Cc1cc(OCCCc2c(C(=O)O)n(CCN3CCOCC3)c3c(-c4ccccc4Cn4cc(CCNC(=O)c5ccncn5)c5ccccc54)cccc23)cc(C)c1Cl
0.26	Cc1cc(OCCCc2c(C(=O)O)[nH]c3c(-c4c(C(=O)NCC5CC5)nn(C)c4COc4ccc(OC(F)(F)F)cc4)cccc23)cc(C)c1Cl
0.051	Cc1cc(OCCCc2c(C(=O)O)n(CCN3CCOCC3)c3c(-c4ccccc4Cn4cc(CCNC(=O)c5ccc(Br)cc5)c5ccccc54)cccc23)cc(C)c1Cl
0.53	COc1ccc(CN(C)C(=O)c2nn(C)c(COc3ccc(OC)cc3)c2-c2cccc3c(CCCOc4cc(C)c(Cl)c(C)c4)c(C(=O)O)[nH]c23)cc1
0.19	C=CC(=O)NCCc1cn(Cc2ccccc2-c2cccc3c(CCCOc4cc(C)c(Cl)c(C)c4)c(C(=O)O)n(CCN4CCOCC4)c23)c2ccccc12
0.18	Cc1cc(OCCCc2c(C(=O)O)[nH]c3c(-c4c(C(=O)NCC5CC5)nn(C)c4COc4ccc(C=O)cc4)cccc23)cc(C)c1Cl
0.095	COc1cccc2c1ccn2Cc1ccccc1-c1cccc2c(CCCOc3cc(C)c(Cl)c(C)c3)c(C(=O)O)n(CCN3CCOCC3)c12
0.22	COc1ccc(OCc2c(-c3cccc4c(CCCOc5cc(C)c(Cl)c(C)c5)c(C(=O)O)[nH]c34)c(C(=O)NCC3CC3)nn2C)cc1
0.089	Cc1cc(OCCCc2c(C(=O)O)n(CCN3CCOCC3)c3c(-c4ccccc4Cn4cc(C)c5ccccc54)cccc23)cc(C)c1Cl
1.2	Cc1cc(OCCCc2c(C(=O)O)n(CCN3CCOCC3)c3c(-c4ccccc4Cn4cc(CCNCC(N)=O)c5ccccc54)cccc23)cc(C)c1Cl
0.24	COc1ccccc1OCc1c(-c2cccc3c(CCCOc4cc(C)c(Cl)c(C)c4)c(C(=O)O)[nH]c23)c(C(=O)NCC2CC2)nn1C
0.068	Cc1cc(OCCCc2c(C(=O)O)n(CCN3CCOCC3)c3c(-c4ccccc4Cn4cc(CCNC(=O)c5ccccc5Br)c5ccccc54)cccc23)cc(C)c1Cl
0.048	Cc1cc(OCCCc2c(C(=O)O)n(CCN3CCOCC3)c3c(-c4ccccc4Cn4cc(CCNS(=O)(=O)c5ccc(F)cc5)c5ccccc54)cccc23)cc(C)c1Cl
0.26	COc1ccc(OCc2c(-c3cccc4c(CCCOc5cc(C)c(Cl)c(C)c5)c(C(=O)O)[nH]c34)c(C(=O)N(C)CCNC(=O)OC(C)(C)C)nn2C)cc1
0.045	Cc1cc(OCCCc2c(C(=O)O)n(CCN3CCOCC3)c3c(-c4ccccc4Cn4cc(CCNC(=O)c5ccc(Cl)cc5)c5ccccc54)cccc23)cc(C)c1Cl
0.037	Cc1cc(OCCCc2c(C(=O)O)n(CCN3CCOCC3)c3c(-c4ccccc4Cn4cc(CCNC(=O)c5ccc(F)cc5)c5ccccc54)cccc23)cc(C)c1Cl
0.34	Cc1cc(OCCCc2c(C(=O)O)[nH]c3c(-c4c(C(=O)NCC5CC5)nn(C)c4COc4ccccc4)cccc23)cc(C)c1Cl
0.15	Cc1cc(OCCCc2c(C(=O)O)n(CCN3CCOCC3)c3c(-c4ccccc4Cn4ccc5ccccc54)cccc23)cc(C)c1Cl
0.15	Cc1ccc2c(ccn2Cc2c(-c3cccc4c(CCCOc5cc(C)c(Cl)c(C)c5)c(C(=O)O)[nH]c34)c(C(=O)NCC3CC3)nn2C)c1
0.12	Cc1cc(OCCCc2c(C(=O)O)n(CCN3CCOCC3)c3c(-c4ccccc4Cn4ccc5c(C)cccc54)cccc23)cc(C)c1Cl

Tested on: HL-60
Experiment: Antiproliferative activity against human HL-60 cells assessed as growth inhibition measured after 72 hrs by CCK-8 assay
Assay type: functional, cell-based
Settings: HL-60, 72 h

IC50 [µM]	Compound
28.4	Cc1cc(OCCCc2c(C(=O)O)n(CCN3CCOCC3)c3c(-c4ccccc4Cn4cc(CCNC(=O)c5ccncn5)c5ccccc54)cccc23)cc(C)c1Cl
32.2	Cc1cc(OCCCc2c(C(=O)O)[nH]c3c(-c4c(C(=O)NCC5CC5)nn(C)c4COc4ccc(OC(F)(F)F)cc4)cccc23)cc(C)c1Cl
30.7	Cc1cc(OCCCc2c(C(=O)O)n(CCN3CCOCC3)c3c(-c4ccccc4Cn4cc(CCNC(=O)c5ccc(Br)cc5)c5ccccc54)cccc23)cc(C)c1Cl
28	COc1ccc(CN(C)C(=O)c2nn(C)c(COc3ccc(OC)cc3)c2-c2cccc3c(CCCOc4cc(C)c(Cl)c(C)c4)c(C(=O)O)[nH]c23)cc1
31.6	C=CC(=O)NCCc1cn(Cc2ccccc2-c2cccc3c(CCCOc4cc(C)c(Cl)c(C)c4)c(C(=O)O)n(CCN4CCOCC4)c23)c2ccccc12
34.9	Cc1cc(OCCCc2c(C(=O)O)[nH]c3c(-c4c(C(=O)NCC5CC5)nn(C)c4COc4ccc(C=O)cc4)cccc23)cc(C)c1Cl
14.1	COc1cccc2c1ccn2Cc1ccccc1-c1cccc2c(CCCOc3cc(C)c(Cl)c(C)c3)c(C(=O)O)n(CCN3CCOCC3)c12
30.5	COc1ccc(OCc2c(-c3cccc4c(CCCOc5cc(C)c(Cl)c(C)c5)c(C(=O)O)[nH]c34)c(C(=O)NCC3CC3)nn2C)cc1
15.7	Cc1cc(OCCCc2c(C(=O)O)n(CCN3CCOCC3)c3c(-c4ccccc4Cn4cc(C)c5ccccc54)cccc23)cc(C)c1Cl
> 50	Cc1cc(OCCCc2c(C(=O)O)n(CCN3CCOCC3)c3c(-c4ccccc4Cn4cc(CCNCC(N)=O)c5ccccc54)cccc23)cc(C)c1Cl
28.8	COc1ccccc1OCc1c(-c2cccc3c(CCCOc4cc(C)c(Cl)c(C)c4)c(C(=O)O)[nH]c23)c(C(=O)NCC2CC2)nn1C
16.8	Cc1cc(OCCCc2c(C(=O)O)n(CCN3CCOCC3)c3c(-c4ccccc4Cn4cc(CCNC(=O)c5ccccc5Br)c5ccccc54)cccc23)cc(C)c1Cl
8.91	Cc1cc(OCCCc2c(C(=O)O)n(CCN3CCOCC3)c3c(-c4ccccc4Cn4cc(CCNS(=O)(=O)c5ccc(F)cc5)c5ccccc54)cccc23)cc(C)c1Cl
> 50	COc1ccc(OCc2c(-c3cccc4c(CCCOc5cc(C)c(Cl)c(C)c5)c(C(=O)O)[nH]c34)c(C(=O)N(C)CCNC(=O)OC(C)(C)C)nn2C)cc1
7.58	Cc1cc(OCCCc2c(C(=O)O)n(CCN3CCOCC3)c3c(-c4ccccc4Cn4cc(CCNC(=O)c5ccc(Cl)cc5)c5ccccc54)cccc23)cc(C)c1Cl
7.96	Cc1cc(OCCCc2c(C(=O)O)n(CCN3CCOCC3)c3c(-c4ccccc4Cn4cc(CCNC(=O)c5ccc(F)cc5)c5ccccc54)cccc23)cc(C)c1Cl
47.8	Cc1cc(OCCCc2c(C(=O)O)[nH]c3c(-c4c(C(=O)NCC5CC5)nn(C)c4COc4ccccc4)cccc23)cc(C)c1Cl
21.2	Cc1cc(OCCCc2c(C(=O)O)n(CCN3CCOCC3)c3c(-c4ccccc4Cn4ccc5ccccc54)cccc23)cc(C)c1Cl
8.82	Cc1ccc2c(ccn2Cc2c(-c3cccc4c(CCCOc5cc(C)c(Cl)c(C)c5)c(C(=O)O)[nH]c34)c(C(=O)NCC3CC3)nn2C)c1
15.1	Cc1cc(OCCCc2c(C(=O)O)n(CCN3CCOCC3)c3c(-c4ccccc4Cn4ccc5c(C)cccc54)cccc23)cc(C)c1Cl
> 50	Cc1cc(OCCCc2c(C(=O)O)n(CCN3CCOCC3)c3c(-c4ccccc4Cn4cc(CCNC(=O)/C=C/c5ccc(Cl)c(Cl)c5)c5ccccc54)cccc23)cc(C)c1Cl

Target: Apoptosis regulator Bcl-2 (Homo sapiens, UniProt P10415)
Sequence (P10415 whole entry): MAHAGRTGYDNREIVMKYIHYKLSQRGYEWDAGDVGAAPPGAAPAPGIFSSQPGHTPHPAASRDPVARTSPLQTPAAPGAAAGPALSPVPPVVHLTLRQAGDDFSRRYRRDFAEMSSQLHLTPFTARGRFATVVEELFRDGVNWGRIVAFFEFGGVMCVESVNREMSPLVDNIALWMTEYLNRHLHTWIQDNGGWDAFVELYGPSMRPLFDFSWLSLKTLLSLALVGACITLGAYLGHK
Experiment: Binding affinity to Bcl-2 (unknown origin) pre-incubated for 30 mins followed by addition FAM-peptide further incubated for 20 mins by fluorescence polarization-based binding assay
Settings: not given

IC50 [µM]	Compound
> 100	Cc1cc(OCCCc2c(C(=O)O)n(CCN3CCOCC3)c3c(-c4ccccc4Cn4cc(CCNC(=O)c5ccc(Cl)cc5)c5ccccc54)cccc23)cc(C)c1Cl
> 100	Cc1cc(OCCCc2c(C(=O)O)n(CCN3CCOCC3)c3c(-c4ccccc4Cn4cc(CCNC(=O)c5ccc(F)cc5)c5ccccc54)cccc23)cc(C)c1Cl

Target: Bcl-2-like protein 1 (Homo sapiens, UniProt Q07817)
Sequence (Q07817 whole entry): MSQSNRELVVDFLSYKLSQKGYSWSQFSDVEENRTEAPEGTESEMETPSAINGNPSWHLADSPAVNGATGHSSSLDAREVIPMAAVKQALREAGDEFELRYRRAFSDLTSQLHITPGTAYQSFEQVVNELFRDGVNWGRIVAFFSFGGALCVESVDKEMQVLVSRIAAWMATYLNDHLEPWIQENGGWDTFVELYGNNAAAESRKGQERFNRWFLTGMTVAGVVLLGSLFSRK
Experiment: Binding affinity to Bcl-xL (unknown origin) pre-incubated for 30 mins followed by addition FAM-peptide further incubated for 20 mins by fluorescence polarization-based binding assay
Settings: not given

IC50 [µM]	Compound
> 100	Cc1cc(OCCCc2c(C(=O)O)n(CCN3CCOCC3)c3c(-c4ccccc4Cn4cc(CCNC(=O)c5ccc(Cl)cc5)c5ccccc54)cccc23)cc(C)c1Cl
> 100	Cc1cc(OCCCc2c(C(=O)O)n(CCN3CCOCC3)c3c(-c4ccccc4Cn4cc(CCNC(=O)c5ccc(F)cc5)c5ccccc54)cccc23)cc(C)c1Cl

Target: T2, Bcl-2-related protein A1 (Homo sapiens, UniProt Q16548)
T2 sequence (Q16548 whole entry): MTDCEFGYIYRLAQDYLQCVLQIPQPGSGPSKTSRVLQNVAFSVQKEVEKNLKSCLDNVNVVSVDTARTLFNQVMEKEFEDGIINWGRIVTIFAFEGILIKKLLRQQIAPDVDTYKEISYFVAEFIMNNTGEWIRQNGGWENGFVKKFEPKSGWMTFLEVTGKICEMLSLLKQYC
Experiment: Binding affinity to Bfl-1 (unknown origin) pre-incubated for 30 mins followed by addition FAM-peptide further incubated for 20 mins by fluorescence polarization-based binding assay
Settings: not given

IC50 [µM]	Compound
> 10	Cc1cc(OCCCc2c(C(=O)O)n(CCN3CCOCC3)c3c(-c4ccccc4Cn4cc(CCNC(=O)c5ccc(Cl)cc5)c5ccccc54)cccc23)cc(C)c1Cl
> 10	Cc1cc(OCCCc2c(C(=O)O)n(CCN3CCOCC3)c3c(-c4ccccc4Cn4cc(CCNC(=O)c5ccc(F)cc5)c5ccccc54)cccc23)cc(C)c1Cl
